PMC4774911, “Biochemical Screening of Five Protein Kinases from Plasmodium falciparum against 14,000 Cell-Active Compounds” (PLoS ONE, 2016)
Several values for one entry are separate records, joined by “and”; a condition that tells them apart may be missing. Identical values can stand only once.

Assays:
Assay in all cases: biochemical
PRKCA = PRKCA (Homo sapiens, UniProt P17252)
DYRK1A = DYRK1A (Homo sapiens, UniProt Q13627)
MAPK9 = MAPK9 (Homo sapiens, UniProt P45984)
CHUK = biological target: T1, CHUK (Homo sapiens, UniProt O15111)
T1 sequence (O15111 1-745): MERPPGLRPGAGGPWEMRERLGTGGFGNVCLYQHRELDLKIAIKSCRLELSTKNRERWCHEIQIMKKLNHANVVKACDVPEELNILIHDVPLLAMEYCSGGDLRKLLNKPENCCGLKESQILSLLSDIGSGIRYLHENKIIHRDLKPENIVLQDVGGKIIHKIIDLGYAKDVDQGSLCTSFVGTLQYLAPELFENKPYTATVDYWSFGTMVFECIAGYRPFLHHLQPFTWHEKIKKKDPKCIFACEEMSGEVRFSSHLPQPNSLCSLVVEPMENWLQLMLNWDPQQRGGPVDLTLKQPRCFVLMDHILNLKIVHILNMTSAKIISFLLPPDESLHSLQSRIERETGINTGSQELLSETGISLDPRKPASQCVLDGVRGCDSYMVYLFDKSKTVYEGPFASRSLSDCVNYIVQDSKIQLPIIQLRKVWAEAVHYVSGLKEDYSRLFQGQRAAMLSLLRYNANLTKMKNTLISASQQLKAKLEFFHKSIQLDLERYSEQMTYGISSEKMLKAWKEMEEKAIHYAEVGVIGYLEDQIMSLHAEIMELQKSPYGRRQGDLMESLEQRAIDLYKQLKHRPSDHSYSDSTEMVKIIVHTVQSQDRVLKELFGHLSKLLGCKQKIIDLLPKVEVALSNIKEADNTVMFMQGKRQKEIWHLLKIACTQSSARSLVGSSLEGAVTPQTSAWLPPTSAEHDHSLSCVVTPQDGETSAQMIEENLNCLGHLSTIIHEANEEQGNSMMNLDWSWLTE

BMP2K = BMP2K (Homo sapiens, UniProt Q9NSY1)
MAP3K1 = MAP3K1 (Homo sapiens, UniProt Q13233)
MAP3K1, sequence (Q13233 whole entry): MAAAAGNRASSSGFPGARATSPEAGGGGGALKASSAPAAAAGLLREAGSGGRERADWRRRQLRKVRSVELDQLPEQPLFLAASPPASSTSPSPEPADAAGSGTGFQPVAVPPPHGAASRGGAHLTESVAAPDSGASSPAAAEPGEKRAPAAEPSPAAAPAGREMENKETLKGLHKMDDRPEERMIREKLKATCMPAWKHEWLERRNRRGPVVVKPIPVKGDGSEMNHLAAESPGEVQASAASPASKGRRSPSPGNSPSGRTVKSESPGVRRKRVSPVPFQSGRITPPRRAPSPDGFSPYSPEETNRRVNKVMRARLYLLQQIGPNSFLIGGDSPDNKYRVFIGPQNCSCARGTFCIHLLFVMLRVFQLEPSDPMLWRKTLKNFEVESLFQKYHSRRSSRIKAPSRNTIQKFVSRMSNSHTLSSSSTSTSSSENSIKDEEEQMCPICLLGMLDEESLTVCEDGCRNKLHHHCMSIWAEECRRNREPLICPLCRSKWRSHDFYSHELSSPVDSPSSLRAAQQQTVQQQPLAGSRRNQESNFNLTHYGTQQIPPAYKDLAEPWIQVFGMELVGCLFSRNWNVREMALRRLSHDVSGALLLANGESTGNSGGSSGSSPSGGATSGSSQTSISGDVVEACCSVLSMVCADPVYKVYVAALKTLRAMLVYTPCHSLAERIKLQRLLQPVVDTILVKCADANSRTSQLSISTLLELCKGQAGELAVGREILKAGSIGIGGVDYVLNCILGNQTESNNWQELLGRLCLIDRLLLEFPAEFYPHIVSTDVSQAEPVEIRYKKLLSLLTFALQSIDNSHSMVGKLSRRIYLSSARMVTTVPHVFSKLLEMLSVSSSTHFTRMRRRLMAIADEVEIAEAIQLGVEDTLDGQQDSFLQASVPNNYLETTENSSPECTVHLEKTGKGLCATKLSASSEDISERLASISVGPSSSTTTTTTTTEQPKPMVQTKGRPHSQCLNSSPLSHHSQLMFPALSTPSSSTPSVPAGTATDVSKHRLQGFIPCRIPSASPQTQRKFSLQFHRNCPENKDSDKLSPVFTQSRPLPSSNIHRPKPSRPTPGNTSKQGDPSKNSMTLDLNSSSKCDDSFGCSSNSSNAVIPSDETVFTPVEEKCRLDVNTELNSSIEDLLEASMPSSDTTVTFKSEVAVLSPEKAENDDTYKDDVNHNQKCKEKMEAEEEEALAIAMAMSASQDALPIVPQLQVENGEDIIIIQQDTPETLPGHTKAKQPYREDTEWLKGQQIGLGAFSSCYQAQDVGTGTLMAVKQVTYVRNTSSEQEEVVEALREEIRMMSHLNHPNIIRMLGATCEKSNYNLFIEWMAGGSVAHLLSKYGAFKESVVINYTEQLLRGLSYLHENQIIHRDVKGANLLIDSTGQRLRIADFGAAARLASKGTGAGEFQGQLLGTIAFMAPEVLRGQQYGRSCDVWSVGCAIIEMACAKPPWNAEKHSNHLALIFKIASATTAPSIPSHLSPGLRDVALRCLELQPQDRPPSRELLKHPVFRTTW

SIK2 = SIK2 (Homo sapiens, UniProt Q9H0K1)
SIK2, sequence (Q9H0K1 whole entry): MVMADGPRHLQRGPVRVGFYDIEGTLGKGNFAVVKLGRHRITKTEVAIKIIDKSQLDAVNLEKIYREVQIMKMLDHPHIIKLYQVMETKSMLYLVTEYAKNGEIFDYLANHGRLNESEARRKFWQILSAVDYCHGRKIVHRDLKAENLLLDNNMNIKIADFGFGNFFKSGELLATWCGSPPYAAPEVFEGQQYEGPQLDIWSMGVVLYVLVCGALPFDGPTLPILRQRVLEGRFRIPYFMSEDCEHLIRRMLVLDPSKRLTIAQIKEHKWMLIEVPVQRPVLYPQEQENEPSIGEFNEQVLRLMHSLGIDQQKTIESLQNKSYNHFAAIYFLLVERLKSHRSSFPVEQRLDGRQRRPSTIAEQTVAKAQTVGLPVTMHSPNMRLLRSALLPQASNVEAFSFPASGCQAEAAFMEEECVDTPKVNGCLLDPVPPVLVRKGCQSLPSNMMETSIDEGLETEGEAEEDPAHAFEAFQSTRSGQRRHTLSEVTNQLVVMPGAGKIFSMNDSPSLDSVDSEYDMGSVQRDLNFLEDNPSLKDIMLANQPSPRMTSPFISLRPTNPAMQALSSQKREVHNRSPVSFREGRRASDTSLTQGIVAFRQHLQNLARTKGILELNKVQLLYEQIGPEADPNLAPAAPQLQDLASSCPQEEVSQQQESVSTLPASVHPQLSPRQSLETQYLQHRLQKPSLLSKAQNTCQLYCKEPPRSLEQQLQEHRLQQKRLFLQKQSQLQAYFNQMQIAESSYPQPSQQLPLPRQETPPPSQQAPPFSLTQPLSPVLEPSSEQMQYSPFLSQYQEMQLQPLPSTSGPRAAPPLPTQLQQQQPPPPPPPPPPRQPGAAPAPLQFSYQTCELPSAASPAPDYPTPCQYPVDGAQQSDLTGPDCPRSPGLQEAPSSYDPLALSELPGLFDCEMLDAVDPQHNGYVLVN

ACVR1 = biological target: T2, ACVR1 (Homo sapiens, UniProt Q04771)
T2 sequence (Q04771 1-509): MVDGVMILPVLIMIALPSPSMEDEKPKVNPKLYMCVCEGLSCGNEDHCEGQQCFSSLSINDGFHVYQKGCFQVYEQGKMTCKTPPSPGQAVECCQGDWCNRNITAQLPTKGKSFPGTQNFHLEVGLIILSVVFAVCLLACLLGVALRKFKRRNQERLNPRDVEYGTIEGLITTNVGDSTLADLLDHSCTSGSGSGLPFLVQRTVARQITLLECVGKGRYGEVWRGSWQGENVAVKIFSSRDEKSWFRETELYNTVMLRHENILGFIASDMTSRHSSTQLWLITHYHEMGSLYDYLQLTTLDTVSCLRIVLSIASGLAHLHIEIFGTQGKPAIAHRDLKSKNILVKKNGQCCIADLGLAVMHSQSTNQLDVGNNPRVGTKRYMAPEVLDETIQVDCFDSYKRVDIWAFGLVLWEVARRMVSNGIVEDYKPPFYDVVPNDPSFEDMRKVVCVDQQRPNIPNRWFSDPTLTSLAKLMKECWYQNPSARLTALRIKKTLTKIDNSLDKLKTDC

FYN = FYN (Homo sapiens, UniProt P06241)
FYN, sequence (P06241 whole entry): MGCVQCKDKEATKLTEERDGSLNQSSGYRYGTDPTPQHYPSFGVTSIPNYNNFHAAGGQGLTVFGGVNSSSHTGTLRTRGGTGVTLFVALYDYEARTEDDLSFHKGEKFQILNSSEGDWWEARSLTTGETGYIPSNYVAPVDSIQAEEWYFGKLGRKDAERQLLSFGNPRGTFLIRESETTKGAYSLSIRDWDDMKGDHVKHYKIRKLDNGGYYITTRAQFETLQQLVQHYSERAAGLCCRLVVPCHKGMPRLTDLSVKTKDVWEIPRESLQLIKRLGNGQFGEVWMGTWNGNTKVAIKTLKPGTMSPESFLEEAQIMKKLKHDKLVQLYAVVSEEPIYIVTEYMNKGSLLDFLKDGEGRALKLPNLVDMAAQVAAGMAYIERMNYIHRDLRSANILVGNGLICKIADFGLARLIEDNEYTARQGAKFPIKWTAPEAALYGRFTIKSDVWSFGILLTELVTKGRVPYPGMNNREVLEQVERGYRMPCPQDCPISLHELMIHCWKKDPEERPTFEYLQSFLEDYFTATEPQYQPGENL

BUB1 = BUB1 (Homo sapiens, UniProt O43683)
CRKRS = CRKRS (Homo sapiens, UniProt Q9NYV4)
BTK = BTK (Homo sapiens, UniProt Q06187)
PAK4 = PAK4 (Homo sapiens, UniProt O96013)
PAK4, sequence (O96013 whole entry): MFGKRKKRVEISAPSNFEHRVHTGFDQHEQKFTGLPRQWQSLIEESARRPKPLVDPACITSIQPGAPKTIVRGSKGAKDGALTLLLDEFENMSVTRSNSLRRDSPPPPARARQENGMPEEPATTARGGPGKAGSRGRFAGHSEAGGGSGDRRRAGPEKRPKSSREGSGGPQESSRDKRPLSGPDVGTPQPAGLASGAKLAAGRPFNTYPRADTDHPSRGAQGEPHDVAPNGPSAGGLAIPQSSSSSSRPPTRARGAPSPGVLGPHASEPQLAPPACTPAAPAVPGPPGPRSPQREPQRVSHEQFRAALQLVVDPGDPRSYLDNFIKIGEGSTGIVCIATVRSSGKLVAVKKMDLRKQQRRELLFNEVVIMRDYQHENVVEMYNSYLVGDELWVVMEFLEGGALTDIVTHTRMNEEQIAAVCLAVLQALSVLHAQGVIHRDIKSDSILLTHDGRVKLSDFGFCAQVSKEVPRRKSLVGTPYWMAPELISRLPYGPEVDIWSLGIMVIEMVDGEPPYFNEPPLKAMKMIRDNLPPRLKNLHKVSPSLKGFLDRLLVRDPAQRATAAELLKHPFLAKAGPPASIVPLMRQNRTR

MAPK14 = MAPK14 (Homo sapiens, UniProt Q16539)
MAPK14, sequence (Q16539 whole entry): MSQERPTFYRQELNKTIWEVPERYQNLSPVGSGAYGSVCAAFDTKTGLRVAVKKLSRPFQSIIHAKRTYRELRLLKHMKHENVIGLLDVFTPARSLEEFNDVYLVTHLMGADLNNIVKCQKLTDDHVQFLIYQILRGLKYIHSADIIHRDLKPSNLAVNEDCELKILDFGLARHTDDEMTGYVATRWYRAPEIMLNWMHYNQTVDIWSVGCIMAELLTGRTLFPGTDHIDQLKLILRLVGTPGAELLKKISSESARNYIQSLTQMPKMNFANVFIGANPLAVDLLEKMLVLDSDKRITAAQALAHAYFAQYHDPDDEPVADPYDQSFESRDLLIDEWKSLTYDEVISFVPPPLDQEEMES

MAPK8 = MAPK8 (Homo sapiens, UniProt P45983)
STK16 = STK16 (Homo sapiens, UniProt O75716)
STK16, sequence (O75716 whole entry): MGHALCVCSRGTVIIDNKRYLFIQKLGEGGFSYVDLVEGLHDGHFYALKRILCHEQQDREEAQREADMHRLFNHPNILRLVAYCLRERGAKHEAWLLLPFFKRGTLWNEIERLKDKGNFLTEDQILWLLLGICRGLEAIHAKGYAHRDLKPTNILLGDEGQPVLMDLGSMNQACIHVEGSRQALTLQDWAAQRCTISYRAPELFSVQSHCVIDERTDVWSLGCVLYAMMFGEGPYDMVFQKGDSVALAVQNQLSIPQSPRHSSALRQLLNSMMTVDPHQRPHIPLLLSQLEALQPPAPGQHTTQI

PKMYT1 = biological target: T3, PKMYT1 (Homo sapiens, UniProt Q99640)
T3 sequence (Q99640 1-499): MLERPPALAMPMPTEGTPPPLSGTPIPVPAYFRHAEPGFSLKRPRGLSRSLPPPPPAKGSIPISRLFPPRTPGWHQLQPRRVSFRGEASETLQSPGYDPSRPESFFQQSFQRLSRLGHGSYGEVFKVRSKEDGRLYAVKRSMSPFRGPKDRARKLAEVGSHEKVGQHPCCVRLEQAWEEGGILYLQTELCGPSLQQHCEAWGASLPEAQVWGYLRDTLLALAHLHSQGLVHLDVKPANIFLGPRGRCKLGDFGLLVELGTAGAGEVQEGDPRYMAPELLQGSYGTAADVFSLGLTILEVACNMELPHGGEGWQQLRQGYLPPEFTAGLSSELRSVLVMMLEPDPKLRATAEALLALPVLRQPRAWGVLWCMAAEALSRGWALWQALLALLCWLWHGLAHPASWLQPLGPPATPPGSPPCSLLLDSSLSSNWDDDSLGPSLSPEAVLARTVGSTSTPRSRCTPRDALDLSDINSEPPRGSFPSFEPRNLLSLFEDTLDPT

CSNK1A1 = CSNK1A1 (Homo sapiens, UniProt P48729)

| Compound | IC50 (PRKCA) | IC50 (DYRK1A) | IC50 (MAPK9) | IC50 (CHUK) | IC50 (BMP2K) | IC50 (MAP3K1) | IC50 (SIK2) | IC50 (ACVR1) | IC50 (FYN) | IC50 (BUB1) | IC50 (CRKRS) | IC50 (BTK) | IC50 (PAK4) | IC50 (MAPK14) | IC50 (MAPK8) | IC50 (STK16) | IC50 (PKMYT1) | IC50 (CSNK1A1) |
| --- | --- | --- | --- | --- | --- | --- | --- | --- | --- | --- | --- | --- | --- | --- | --- | --- | --- | --- |
| CN(C)CC(O)COc1ccc(Nc2ncc([N+](=O)[O-])c(Nc3ccccc3O)n2)cc1.O=C(O)C(F)(F)F (stereo not drawn) [TCMDC-141399] | > 20 µM | 4900 nM | > 20000 nM | > 20 µM | > 20000 nM | > 20 µM | > 20000 nM | > 20 µM | > 20000 nM | > 20000 nM | 2100 nM | > 20000 nM | 9 µM and 6.8 µM | > 20 µM | > 20 µM | 1100 nM | > 20000 nM | 9900 nM |
| Cl.NCC1(c2nc(-c3ccc(Cl)c(O)c3)c(-c3ccncc3)[nH]2)CCCCC1 [TCMDC-141154] | > 20 µM | > 20000 nM | 1700 nM | > 20 µM | > 20000 nM | > 20 µM | 570 nM and 530 nM | > 20 µM | 190 nM and 170 nM | 240 nM and 170 nM | > 20000 nM | > 20000 nM | 9.1 µM and > 20 µM | ≤ 0.032 µM | > 20 µM | > 20000 nM | > 20000 nM | 290 nM and 330 nM |
| CN1CCN(c2ccc(Nc3ncc(C#N)c(Nc4ccccc4C(N)=O)n3)cc2)CC1.Cl [TCMDC-134116] | 0.74 µM | 490 nM and 450 nM | 1100 nM and 1000 nM | > 20 µM | 350 nM and 290 nM | 1.6 µM | ≤ 32 nM and 35 nM | 8.2 µM | 300 nM and 240 nM | 370 nM and 320 nM | 650 nM | 600 nM and 670 nM | 0.38 µM and 0.42 µM | > 20 µM | 1.5 µM and 5.1 µM | 270 nM and 380 nM | 1400 nM and 940 nM | 960 nM and 1400 nM |
